Data on twelve molecules can be found in patent publication US20080312287A1, “Compound and Methods For the Treatment of Cancer and Malaria” (University of Washington, priority 2005, published 2008).

Where two headings read alike, the source gives them in different places.

By inhibition is commonly meant the percentage by which the read-out fell short of the control. The term IC50 denotes the concentration that inhibits the measured activity by half. Higher therefore signals a need for much substance.

One test deals with P. falciparum K1. Description: P. falciparum ED50 determination, [3H]-hypoxanthine incorporation, strain K1. The test is classed as cell-based, Plasmodium falciparum. From the text: (§1) Plasmodium strains. The P. falciparum strains used in this study were 3D7 (Netherlands, sensitive) provided by Dr. Pradipsinh Rathod from the University of Washington and K1 (Thailand, ChQ-R, Pyr-R) obtained from the MR4Unit of the American Type Culture Collection (ATCC, Manassas, Va.).
(§2) P. falciparum culture. Strains of P. falciparum were sustained in vitro based on experimental techniques as described by Trager and Jensen.^26 Cultures were maintained in RPMI-1640 (Sigma, St. Louis, […].) with 2 mM L-glutamine, 25 mM HEPES, 33 mM NaHCO3, 20 μg/ml gentamicin sulfate and 20% (v/v) heat-inactivated human plasma type A+ (R^P-20P). Type A+ erythrocytes were obtained from lab donors, washed three times with RPMI, re-suspended in 50% RPMI, and stored at 4° C. Parasites were grown in 10 mL of a 2% hematocrit/RP-20P (v/v) in 50-mL flasks under a 5% CO2, 5% O2, and 90% N2 atmosphere.
(§3) P. falciparum ED50 determination. One […]L of PFTI dissolved in DMSO was added to each well of a 96-well plate followed by the addition of 200 μL of P. falciparum culture at parasitemia and hematocrit of 0.5%. Plates were flushed with 5% CO2, 5% O2, and 90% N2 then incubated at 37° C. for 48 hr. [8-^3H]-hypoxanthine (0.3 μCi, 20 Ci/mmol, American Radiolabeled Chemicals) in 30 μL RP-20P was added to cultures and incubated for an additional 24 hours. Cells were harvested onto filter mats by a Multiharvester (Skatron, Sunnyvale, Calif.) and the radioactivity incorporated into the parasites was counted on a β-scintillation counter. The background level detected with uninfected erythrocytes was subtracted from the data. The ^3H-incorporation into infected RBCs with 1 μL DMSO vehicle alone represents 100% malaria growth. ED50 values were determined by linear regression analysis of the plots of ^3H-hypoxanthine incorporation versus concentration of compound.

A further test addresses T1, PfPFT (Plasmodium falciparum, UniProt Q8I503+Q8IHP6).
T1 sequence (Q8I503 1-521): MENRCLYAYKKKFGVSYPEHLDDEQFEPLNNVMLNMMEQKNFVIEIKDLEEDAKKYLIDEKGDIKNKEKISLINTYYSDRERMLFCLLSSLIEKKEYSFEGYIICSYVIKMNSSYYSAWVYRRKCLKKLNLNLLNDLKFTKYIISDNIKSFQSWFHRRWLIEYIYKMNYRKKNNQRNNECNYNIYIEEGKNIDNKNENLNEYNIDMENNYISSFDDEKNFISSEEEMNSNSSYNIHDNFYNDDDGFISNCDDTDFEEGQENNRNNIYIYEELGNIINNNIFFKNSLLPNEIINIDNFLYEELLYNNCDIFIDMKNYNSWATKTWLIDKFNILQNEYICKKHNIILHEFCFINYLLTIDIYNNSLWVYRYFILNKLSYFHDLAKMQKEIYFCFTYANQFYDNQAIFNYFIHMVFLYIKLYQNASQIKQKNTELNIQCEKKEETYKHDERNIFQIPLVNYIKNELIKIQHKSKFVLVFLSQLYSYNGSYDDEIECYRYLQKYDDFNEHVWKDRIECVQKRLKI
T1 sequence (Q8IHP6 1-923): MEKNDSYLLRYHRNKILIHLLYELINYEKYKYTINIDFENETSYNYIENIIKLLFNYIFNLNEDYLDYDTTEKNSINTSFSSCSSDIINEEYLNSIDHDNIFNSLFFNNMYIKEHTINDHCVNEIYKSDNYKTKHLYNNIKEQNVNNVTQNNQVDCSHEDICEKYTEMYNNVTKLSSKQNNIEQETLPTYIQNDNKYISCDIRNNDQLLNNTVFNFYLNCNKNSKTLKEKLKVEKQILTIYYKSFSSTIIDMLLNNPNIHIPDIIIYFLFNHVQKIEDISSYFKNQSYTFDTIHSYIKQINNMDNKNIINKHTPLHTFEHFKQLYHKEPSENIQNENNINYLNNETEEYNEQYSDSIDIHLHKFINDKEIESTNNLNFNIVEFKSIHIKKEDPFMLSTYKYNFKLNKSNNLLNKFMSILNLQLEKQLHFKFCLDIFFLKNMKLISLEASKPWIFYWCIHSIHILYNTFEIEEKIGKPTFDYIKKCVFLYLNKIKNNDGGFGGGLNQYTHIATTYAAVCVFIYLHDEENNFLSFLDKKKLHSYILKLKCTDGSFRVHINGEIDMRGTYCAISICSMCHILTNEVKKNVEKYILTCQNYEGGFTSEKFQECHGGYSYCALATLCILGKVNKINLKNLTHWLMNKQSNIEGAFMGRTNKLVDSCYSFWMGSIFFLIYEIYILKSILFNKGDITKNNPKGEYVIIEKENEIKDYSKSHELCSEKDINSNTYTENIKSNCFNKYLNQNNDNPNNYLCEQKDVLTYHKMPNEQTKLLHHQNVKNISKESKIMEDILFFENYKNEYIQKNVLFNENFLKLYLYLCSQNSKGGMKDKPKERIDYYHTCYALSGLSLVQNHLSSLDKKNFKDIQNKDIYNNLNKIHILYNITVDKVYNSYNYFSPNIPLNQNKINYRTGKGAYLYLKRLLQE
Description: PfPFT inhibition, scintillation proximity assay with partially purified PfPFT. Type of test: biochemical. To be noted: for inhibition at 0.005 µM: read-out: % Inhibition of PfPFT at 5 nM, inhibitor at 5 nM; for inhibition at 0.05 µM: read-out: % Inhibition of PfPFT at 50 nM, inhibitor at 50 nM. In general terms: SPA uses beads or plates that emit light when radiolabelled molecules are held near them.

In another test the test system is P. falciparum 3D7. Description: P. falciparum ED50 determination, [3H]-hypoxanthine incorporation, strain 3D7. The test is classed as cell-based, Plasmodium falciparum.
Text: as §1, §2, §3

Another test deals with Rat FTase (Rattus norvegicus, UniProt Q02293+Q04631). Description: Rat farnesyltransferase IC50 determination. Type of test: biochemical. To be noted: concentration decreasing transferase activity twofold.
[1] abbreviates: Plasmodium falciparum, K1, strain K1, concentration decreasing hypoxanthine incorporation into parasites twofold, read-out: ED50 K1.
Where [2] appears, read: Plasmodium falciparum, 3D7, strain 3D7, concentration decreasing hypoxanthine incorporation into parasites twofold, read-out: ED50 3D7.

Consider `C=CCN(CCN(Cc1cncn1C)c1ccc(C#N)cc1)S(=O)(=O)c1cn(C)cn1` [Compound 8l, 1-Methyl-1H-imidazole-4-sulfonic acid allyl-{2-[(4-cyano-phenyl)-(3-methyl-3H-imidazol-4-ylmethyl)-amino]-ethyl}-amide], for which the EC50 in the test with P. falciparum K1 (setting [1]) is over 5000 nM. Further, at PfPFT, the inhibition at 0.005 µM was determined as 1% and the inhibition at 0.05 µM amounted to 42%. In the test on P. falciparum 3D7 (setting [2]), the EC50 was over 5000 nM.
`C=C(C)CN(CCN(Cc1cncn1C)c1ccc(C#N)cc1)S(=O)(=O)c1cn(C)cn1` [Compound 8m, 1-Methyl-1H-imidazole-4-sulfonic acid {2-[(4-cyano-phenyl)-(3-methyl-3H-imidazol-4-ylmethyl)-amino]-ethyl}-(2-methyl-allyl)-amide]: the EC50 with P. falciparum K1 (setting [1]) is over 5000 nM. At PfPFT, the inhibition at 0.005 µM came to 6% and the inhibition at 0.05 µM amounted to 77%. In addition, in the test with P. falciparum 3D7 (setting [2]), the EC50 is over 5000 nM.
In the case of `C=C(Br)CN(CCN(Cc1cncn1C)c1ccc(C#N)cc1)S(=O)(=O)c1cn(C)cn1` [Compound 8n, 1-Methyl-1H-imidazole-4-sulfonic acid (2-bromo-allyl)-{2-[(4-cyano-phenyl)-(3-methyl-3H-imidazol-4-ylmethyl)-amino]-ethyl}-amide], in the test on P. falciparum K1 (setting [1]), the EC50 was over 5000 nM. Besides, at PfPFT, the inhibition at 0.005 µM was determined as 25% and the inhibition at 0.05 µM stood at 80%. For the same molecule, the EC50 in the test with P. falciparum 3D7 (setting [2]) is over 5000 nM.
As for `Cn1cnc(S(=O)(=O)N(CCN(Cc2cncn2C)c2ccc(C#N)cc2)CCn2cccc2)c1` [Compound 8p, 1-Methyl-1H-imidazole-4-sulfonic acid {2-[(4-cyano-phenyl)-(3-methyl-3H-imidazol-4-ylmethyl)-amino]-ethyl}-(2-pyrrol-1-yl-ethyl)-amide], the EC50 in the test on P. falciparum K1 (setting [1]) and with P. falciparum 3D7 (setting [2]) was over 5000 nM each time. Besides, at PfPFT, the inhibition at 0.005 µM is 11%. The inhibition at 0.05 µM on PfPFT is 56%.
For the molecule `Cn1cnc(S(=O)(=O)N(CCN(Cc2cncn2C)c2ccc(C#N)cc2)CC2CCOCC2)c1` [Compound 8r, 1-Methyl-1H-imidazole-4-sulfonic acid {2-[(4-cyano-phenyl)-(3-methyl-3H-imidazol-4-ylmethyl)-amino]-ethyl}-(tetrahydro-pyran-4-ylmethyl)-amide], the EC50 in the test with P. falciparum K1 (setting [1]) was determined as 400 nM. Besides, at PfPFT, the inhibition at 0.005 µM was 28% and the inhibition at 0.05 µM turned out to be 84%. Besides, the EC50 in the test on P. falciparum 3D7 (setting [2]) is 575 nM.
Turning to `Cn1cnc(S(=O)(=O)N(CCN(Cc2cncn2C)c2ccc(C#N)cc2)CC2CCNCC2)c1` [Compound 8s, 1-Methyl-1H-imidazole-4-sulfonic acid {2-[(4-cyano-phenyl)-(3-methyl-3H-imidazol-4-ylmethyl)-amino]-ethyl}-piperidin-4-ylmethyl-amide], the EC50 in the test with P. falciparum K1 (setting [1]) was over 5000 nM. At PfPFT (SAR discussion of Table 4), the activity in words result was “inactive”. For the same molecule, at PfPFT, the inhibition at 0.005 µM was 5% and the inhibition at 0.05 µM turned out to be 5%. In addition, the EC50 with P. falciparum 3D7 (setting [2]) is over 5000 nM.
For the molecule `CC(=O)N1CCC(CN(CCN(Cc2cncn2C)c2ccc(C#N)cc2)S(=O)(=O)c2cn(C)cn2)CC1` [Compound 8t, 1-Methyl-1H-imidazole-4-sulfonic acid (1-acetyl-piperidin-4-ylmethyl)-{2-[(4-cyano-phenyl)-(3-methyl-3H-imidazol-4-ylmethyl)-amino]-ethyl}-amide], the EC50 in the test with P. falciparum K1 (setting [1]) stood at 3500 nM; in the test on P. falciparum 3D7 (setting [2]), 5000 nM. For the same molecule, the inhibition at 0.005 µM on PfPFT came to 8%. For the same molecule, the inhibition at 0.05 µM at PfPFT was found to be 44%.
Regarding `CC(C)C(=O)N1CCC(CN(CCN(Cc2cncn2C)c2ccc(C#N)cc2)S(=O)(=O)c2cn(C)cn2)CC1` [Compound 8u, 1-Methyl-1H-imidazole-4-sulfonic acid {2-[(4-cyano-phenyl)-(3-methyl-3H-imidazol-4-ylmethyl)-amino]-ethyl}-(1-isobutyryl-piperidin-4-ylmethyl)-amide], in the test with P. falciparum K1 (setting [1]), the EC50 came out at 180 nM. In addition, at PfPFT, the inhibition at 0.005 µM came out at 57% and the inhibition at 0.05 µM worked out at 92%. The EC50 in the test on P. falciparum 3D7 (setting [2]) is 230 nM.
On to `Cn1cnc(S(=O)(=O)N(CCN(Cc2cncn2C)c2ccc(C#N)cc2)CC2CCN(c3ncccn3)CC2)c1` [Compound 8w, 1-Methyl-1H-imidazole-4-sulfonic acid {2-[(4-cyano-phenyl)-(3-methyl-3H-imidazol-4-ylmethyl)-amino]-ethyl}-(1-pyrimidin-2-yl-piperidin-4-ylmethyl)-amide], for which the values for the EC50 in the test on P. falciparum K1 (setting [1]) and with P. falciparum 3D7 (setting [2]) were 85 nM and 130 nM, respectively. Inhibition at PfPFT (concentration decreasing transferase activity twofold) was half-maximal at 1.5 nM (IC50). Besides, at PfPFT, the inhibition at 0.005 µM is 74%. On PfPFT, the inhibition at 0.05 µM worked out at 96%.
Regarding `Cc1cccc(CN(CCN(Cc2cncn2C)c2ccc(C#N)cc2)S(=O)(=O)c2cn(C)cn2)c1` [Compound 8y, 1-Methyl-1H-imidazole-4-sulfonic acid {2-[(4-cyano-phenyl)-(3-methyl-3H-imidazol-4-ylmethyl)-amino]-ethyl}-(3-methyl-benzyl)-amidem-toluene], the EC50 in the test with P. falciparum K1 (strain K1, concentration decreasing hypoxanthine incorporation into parasites twofold, read-out: ED50 K1) was 1000 nM; in the test on P. falciparum 3D7 (strain 3D7, concentration decreasing hypoxanthine incorporation into parasites twofold, read-out: ED50 3D7), 300 nM. On PfPFT (inhibitor at 5 nM), the “% Inhibition of PfPFT at 5 nM” value was 61%. Further, the “% Inhibition of PfPFT at 50 nM” value at PfPFT (inhibitor at 50 nM) was 94%.
In the case of `Cc1ccc(CN(CCN(Cc2cncn2C)c2ccc(C#N)cc2)S(=O)(=O)c2cn(C)cn2)cc1` [Compound 8z, 1-Methyl-1H-imidazole-4-sulfonic acid {2-[(4-cyano-phenyl)-(3-methyl-3H-imidazol-4-ylmethyl)-amino]-ethyl}-(4-methyl-benzyl)-amide], the EC50 in the test with P. falciparum K1 (Plasmodium falciparum, K1, read-out: ED50 K1) is over 5000 nM; with P. falciparum 3D7 (Plasmodium falciparum, 3D7, read-out: ED50 3D7), 2700 nM. For the same molecule, at PfPFT, the inhibition at 0.005 µM amounted to 45%. Moreover, the inhibition at 0.05 µM at PfPFT amounted to 54%.
`Cn1cnc(S(=O)(=O)N(CCN(Cc2cncn2C)c2ccc(Br)cc2)Cc2ccccn2)c1` [Compound 13, 1-Methyl-1H-imidazole-4-sulfonic acid {2-[(4-bromo-phenyl)-(3-methyl-3H-imidazol-4-ylmethyl)-amino]-ethyl}-pyridin-2-ylmethyl-amide] gave an IC50 against Rat FTase of 83 nM.
